EC50 data for 28 molecules are collected here from US20240018145A1, “[…]-DEPENDENT EN[…] TREATING OR […]” (priority 2020, published 2024).

In the assay the test system is FLU A (PR/8/34). Nature of the assay: Flu A Neuraminidase Antiviral Assay. In kind it is cell-based.

pEC50: −log10 of the molar value. Where two headings read alike, the source gives them in different places.

A word on the pEC50: it is the negative decadic logarithm of the EC50, by convention in mol/L. `CCN1C(=O)c2c(O)c(=O)ccn2N2C(c3ccccc3C)C(CCC(F)F)CCC12` (single isomer, unassigned) [Compound 102B, 2-(3,3-difluoropropyl)-5-ethyl-7-hydroxy-1-(o-tolyl)-1,2,3,4,4a,5-hexahydrodipyrido[1,2-b:2′,1′-f][1,2,4]triazine-6,8-dione] had a negative logarithm of the EC50 (pEC50) of 7.44.
Molecule `CN1C(=O)c2c(O)c(=O)ccn2N2C(c3ccccc3)C(C3(C(F)(F)F)CC3)CCC12` (single isomer, unassigned) [Compound 108B, 7-hydroxy-5-methyl-1-phenyl-2-(1-(trifluoromethyl)cyclopropyl)-1,2,3,4,4a,5-hexahydrodipyrido[1,2-b:2′,1′-f][1,2,4]triazine-6,8-dione] had a negative logarithm of the EC50 (pEC50) of 8.03. This pEC50 lies 0.59 log units higher than the previous one.
`CN1C(=O)c2c(O)c(=O)ccn2N2C(c3ccccc3C(F)(F)F)CCC12` (single isomer, unassigned) [Compound 15B, 6-hydroxy-4-methyl-1-(2-(trifluoromethyl)phenyl)-2,3,3a,4-tetrahydro-1H-pyrido[2,1-f]pyrrolo[1,2-b][1,2,4]triazine-5,7-dione] gave a negative logarithm of the EC50 (pEC50) of 5.84.
`Cc1ccccc1C1C(CC2CC2(F)F)CCC2N(C)C(=O)c3c(O)c(=O)ccn3N12` (single isomer, unassigned) [Compound 88D] had a pEC50 of 8.54.
In the case of `CN1C(=O)c2c(O)c(=O)ccn2N2C1CCC1(CCC(F)(F)C1)C2c1ccccc1` (single isomer, unassigned) [Compound 68A, 3,3-difluoro-7′-hydroxy-5′-methyl-1′-phenyl-3′,4′,4a′,5′-tetrahydro-1′H-spiro[cyclopentane-1,2′-dipyrido[1,2-b:2′,1′-f][1,2,4]triazine]-6′,8′-dione], the pEC50 (MDCK, 48 h) was 6.46.
Consider `CCN1C(=O)c2c(O)c(=O)cc(COC)n2N2C(c3ccccc3)C(CC(F)(F)F)CCC12` (stereo not shown) [Compound 131C, 5-ethyl-7-hydroxy-10-(methoxymethyl)-1-phenyl-2-(2,2,2-trifluoroethyl)-1,2,3,4,4a,5-hexahydrodipyrido[1,2-b:2′,1′-f][1,2,4]triazine-6,8-dione], for which the negative logarithm of the EC50 (pEC50) is less than 6.09.
The molecule `CC1(c2ccccc2)CCCC2N(CC3CC(F)(F)C3)C(=O)c3c(O)c(=O)ccn3N21` (single isomer, unassigned) [Compound 45A, 5-((3,3-difluorocyclobutyl)methyl)-7-hydroxy-1-methyl-1-phenyl-1,2,3,4,4a,5-hexahydrodipyrido[1,2-b:2′,1′-f][1,2,4]triazine-6,8-dione] gave a pEC50 of less than 5.09.
Still for that read-out and setting: for `Cc1cc(=O)c(O)c2n1N1C(c3ccccc3)C(CC(F)(F)F)CCC1N(C)C2=O` (single isomer, unassigned) [Compound 132A, 7-hydroxy-5,10-dimethyl-1-phenyl-2-(2,2,2-trifluoroethyl)-1,2,3,4,4a,5-hexahydrodipyrido[1,2-b:2′,1′-f][1,2,4]triazine-6,8-dione] the value was less than 6.09; for `CN1C(=O)c2c(O)c(=O)ccn2N2C1CCCC21CCc2ccccc21` (single isomer, unassigned) [Compound 21A, 7-hydroxy-5-methyl-2′,3,3′,4,4a,5-hexahydro-2H-spiro[dipyrido[1,2-b:2′,1′-f][1,2,4]triazine-1,1′-indene]-6,8-dione], less than 5.09.
Same read-out and setting: for `CN1C(=O)c2c(O)c(=O)ccn2N2C(c3ccccc3C3CC3)C(CC(F)(F)F)CCC12` (single isomer, unassigned) [Compound 107A, 1-(2-cyclopropylphenyl)-7-hydroxy-5-methyl-2-(2,2,2-trifluoroethyl)-1,2,3,4,4a,5-hexahydrodipyrido[1,2-b:2′,1′-f][1,2,4]triazine-6,8-dione] the value was 5.32; for `COc1ccccc1C1CCCC2N(C)C(=O)c3c(O)c(=O)ccn3N12` (single isomer, unassigned) [Compound 19A, 7-hydroxy-1-(2-methoxyphenyl)-5-methyl-1,2,3,4,4a,5-hexahydrodipyrido[1,2-b:2′,1′-f][1,2,4]triazine-6,8-dione], less than 5.09.
In turn, `CN1C(=O)c2c(O)c(=O)ccn2N2C(c3cccc(OC(F)F)c3)CCCC12` (single isomer, unassigned) [Compound 12A, 1-(3-(difluoromethoxy)phenyl)-7-hydroxy-5-methyl-1,2,3,4,4a,5-hexahydrodipyrido[1,2-b:2′,1′-f][1,2,4]triazine-6,8-dione] showed a pEC50 (MDCK, 48 h) of less than 5.09.
Turning to `CN1C(=O)c2c(O)c(=O)ccn2N2C1CCC(O)C2(C)c1ccccc1` (stereo not shown) [Compound 137C, 2,7-dihydroxy-1,5-dimethyl-1-phenyl-1,2,3,4,4a,5-hexahydrodipyrido[1,2-b:2′,1′-f][1,2,4]triazine-6,8-dione], the pEC50 is less than 5.09.
On the same count and under the same terms, the figure for `CC1CC2N(C)C(=O)c3c(O)c(=O)ccn3N2C(C)(c2ccccc2)C1` (single isomer, unassigned) [Compound 43B, 7-hydroxy-1,3,5-trimethyl-1-phenyl-1,2,3,4,4a,5-hexahydrodipyrido[1,2-b:2′,1′-f][1,2,4]triazine-6,8-dione] is 5.96.
Same read-out and setting: for `CN1C(=O)c2c(O)c(=O)ccn2N2C(c3ccccc3)C3CCC(C3)C12` (single isomer, unassigned) [Compound 9D, 4-hydroxy-6-methyl-11-phenyl-6a,7,8,9,10,11-hexahydro-3H-7,10-methanopyrido[1′,2′:1,6][1,2,4]triazino[2,3-a]azepine-3,5(6H)-dione] the value was less than 5.09.
Still for that read-out and setting: for `Cc1ccccc1C1C(CC(F)(F)F)CC(C)C2N(C)C(=O)c3c(O)c(=O)ccn3N12` (single isomer, unassigned) [Compound 79A, 7-hydroxy-4,5-dimethyl-1-(o-tolyl)-2-(2,2,2-trifluoroethyl)-1,2,3,4,4a,5-hexahydrodipyrido[1,2-b:2′,1′-f][1,2,4]triazine-6,8-dione] the value was 7.08; for `CCN1C(=O)c2c(O)c(=O)ccn2N2C1CCCC2(C)c1ccccc1` (single isomer, unassigned) [Compound 36A, 5-ethyl-7-hydroxy-1-methyl-1-phenyl-1,2,3,4,4a,5-hexahydrodipyrido[1,2-b:2′,1′-f][1,2,4]triazine-6,8-dione], 8.49.
As for `Cc1cc(=O)c(O)c2n1N1C(c3ccccc3)C(CC(F)(F)F)CCC1N(C)C2=O` (single isomer, unassigned) [Compound 132D, 7-hydroxy-5,10-dimethyl-1-phenyl-2-(2,2,2-trifluoroethyl)-1,2,3,4,4a,5-hexahydrodipyrido[1,2-b:2′,1′-f][1,2,4]triazine-6,8-dione], the pEC50 was less than 6.09.
Same read-out and setting: for `CN1C(=O)c2c(O)c(=O)ccn2N2C1CCC1(CCCC(F)(F)C1)C2c1ccccc1` (single isomer, unassigned) [Compound 75B, 3,3-difluoro-7′-hydroxy-5′-methyl-1′-phenyl-3′,4′,4a′,5′-tetrahydro-1′H-spiro[cyclohexane-1,2′-dipyrido[1,2-b:2′,1′-f][1,2,4]triazine]-6′,8′-dione] the value was 8.10; for `CN1C(=O)c2c(O)c(=O)ccn2N2C1CCC2(C)c1ccccc1Cl` (single isomer, unassigned) [Compound 63A, 1-(2-chlorophenyl)-6-hydroxy-1,4-dimethyl-2,3,3a,4-tetrahydro-1H-pyrido[2,1-f]pyrrolo[1,2-b][1,2,4]triazine-5,7-dione], less than 5.09; for `CCc1ccccc1C1C(CC(F)(F)F)CCC2N(C)C(=O)c3c(O)c(=O)ccn3N12` (single isomer, unassigned) [Compound 112B, 1-(2-ethylphenyl)-7-hydroxy-5-methyl-2-(2,2,2-trifluoroethyl)-1,2,3,4,4a,5-hexahydrodipyrido[1,2-b:2′,1′-f][1,2,4]triazine-6,8-dione], 6.79.
In turn, `CC1(c2ccccc2)CCCC2N(CC(F)(F)F)C(=O)c3c(O)c(=O)ccn3N21` (single isomer, unassigned) [Compound 34A, 7-hydroxy-1-methyl-1-phenyl-5-(2,2,2-trifluoroethyl)-1,2,3,4,4a,5-hexahydrodipyrido[1,2-b:2′,1′-f][1,2,4]triazine-6,8-dione] gave a negative-log EC50 (pEC50) of 5.51.
Still for that read-out and setting: for `CN1C(=O)c2c(O)c(=O)ccn2N2C(c3ccccc3)C(CCC(F)F)CCC12` (single isomer, unassigned) [Compound 124A, 2-(3,3-difluoropropyl)-7-hydroxy-5-methyl-1-phenyl-1,2,3,4,4a,5-hexahydrodipyrido[1,2-b:2′,1′-f][1,2,4]triazine-6,8-dione] the value was 6.06.
On the same count and under the same terms, the figure for `CC1CC(c2ccccc2)N2C(C1)N(C)C(=O)c1c(O)c(=O)ccn12` (single isomer, unassigned) [Compound 6A, 7-hydroxy-3,5-dimethyl-1-phenyl-1,2,3,4,4a,5-hexahydrodipyrido[1,2-b:2′,1′-f][1,2,4]triazine-6,8-dione] is 6.43; for `CN1C(=O)c2c(O)c(=O)ccn2N2C(c3ccccc3Br)C(CC(F)(F)F)CCC12` (single isomer, unassigned) [Compound 89A, 1-(2-bromophenyl)-7-hydroxy-5-methyl-2-(2,2,2-trifluoroethyl)-1,2,3,4,4a,5-hexahydrodipyrido[1,2-b:2′,1′-f][1,2,4]triazine-6,8-dione] it is 6.53.
As for `CN1C(=O)c2c(O)c(=O)ccn2N2C1CCCC2(C)c1cccc(Cl)c1` (single isomer, unassigned) [Compound 28B, 1-(3-chlorophenyl)-7-hydroxy-1,5-dimethyl-1,2,3,4,4a,5-hexahydrodipyrido[1,2-b:2′,1′-f][1,2,4]triazine-6,8-dione], the pEC50 was 6.56.
Turning to `Cc1ccccc1C1C(c2ccc(F)c(F)c2)CCC2N(C)C(=O)c3c(O)c(=O)ccn3N12` (single isomer, unassigned) [Compound 91B, 2-(3,4-difluorophenyl)-7-hydroxy-5-methyl-1-(o-tolyl)-1,2,3,4,4a,5-hexahydrodipyrido[1,2-b:2′,1′-f][1,2,4]triazine-6,8-dione], the pEC50 was 8.14. Against the preceding molecule, the pEC50 is 1.58 log units higher.
The same measure, in the same setting: for `CCCC1CCC2N(CC)C(=O)c3c(O)c(=O)ccn3N2C1c1ccccc1F` (single isomer, unassigned) [Compound 96B, 5-ethyl-1-(2-fluorophenyl)-7-hydroxy-2-propyl-1,2,3,4,4a,5-hexahydrodipyrido[1,2-b:2′,1′-f][1,2,4]triazine-6,8-dione] the value was 8.66.
